From patent US12491170B2, “Stable treprostinil prodrugs” (United Therapeutics Corporation, priority 2020, dated 2025)

Key:
[1] = Hydrolysis of prodrugs to treprostinil at pH 6, 7, 8 and 40 C; format: physicochemical
Source text: Tables 24, 25 and 26 present data for hydrolysis of selected treprostinil prodrugs at pH 6, 7 and 8, respectively, and 40 C.

[2] = rat
[3] = biological target: T1, PGE2 receptor 1 (EP1) (Homo sapiens, UniProt P34995); assay: EP1 receptor calcium agonist assay (HEK293T cells); format: cell-based; parameters: key to EC50 Fold Different from Treprostinil, EP1 Receptor: NC = too inactive to realistically calculate; conditions: for EP1 Relative to Tre: Table 22, relative to treprostinil EC50 values, * partial agonists or ambiguous dose-response curves
T1 sequence (P34995 1-402): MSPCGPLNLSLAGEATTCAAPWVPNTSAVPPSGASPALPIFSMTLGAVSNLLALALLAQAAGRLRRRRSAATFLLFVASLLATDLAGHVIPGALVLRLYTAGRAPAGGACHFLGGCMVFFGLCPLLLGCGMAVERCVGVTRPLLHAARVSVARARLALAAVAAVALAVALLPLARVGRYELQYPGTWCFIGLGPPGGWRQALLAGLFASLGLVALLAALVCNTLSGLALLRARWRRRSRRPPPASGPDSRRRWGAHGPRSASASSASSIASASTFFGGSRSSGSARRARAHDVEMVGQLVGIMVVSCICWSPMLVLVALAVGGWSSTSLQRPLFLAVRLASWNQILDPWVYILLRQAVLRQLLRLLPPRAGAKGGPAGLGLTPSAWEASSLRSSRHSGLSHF
Method: Calcium assay kit: Multiscreen™ Calcium 1.0 No Wash Kit (Multispan, Inc., Cat #MSCA01-1)
• EP1 Calcium and DP1 cAMP Assays: HBSS plus 20 mM HEPES • EP2 and IP1 cAMP Assays: 1 mM IBMX in HBSS plus 20 mM HEPES Instruments: FlexStation III (Molecular Devices) and FLIPR 384 (Molecular Devices)
Cells were thawed from frozen cells and resuspended in assay buffer at desired concentrations. cAMP or Calcium assays were performed according to the manufacturer's protocol using Multiscreen™ TR-FRET cAMP 1.0 No Wash Assay Kit or Multiscreen™ Calcium 1.0 No Wash Kit.
Calcium Assay: Cells were seeded in a 384-well plate at an appropriate density. The calcium assay was conducted according to the manufacturer's protocols (Multiscreen Calcium 1.0 No Wash Assay Kit). The calcium dye loading buffer was added to the cells and incubated for 1 hour at 37° C. For agonist mode, cells were injected with Iloprost control agonist or test compound by FLIPR and calcium mobilization was monitored for 180 seconds with compound injected into the wells at the 19th second. Fluorescent emissions were read at 525 nm with excitation at 490 nm in a FLIPR 384 instrument (Molecular Devices).
Calcium Assay: Calcium assay results are expressed as “RFU” as defined in figure below. Data are represented in Mean±SEM. Dose-response curves were fitted using “Sigmoidal dose-response (variable slope)” function in GraphPad Prism 6. EC50 values were calculated based on the fitted curves.
Prostaglandin receptor activity assessments with treprostinil and treprostinil analogues have been conducted, and a historical, positive control agonist for these receptors, iloprost (for IP, EP2 and EP1) or PGD2 (for DP1), was also included. These studies used cell lines overexpressing either human IP, EP2 or DP1, or EP1 receptors, and following incubation with varying concentrations of compounds, cAMP levels were measured using Fluorescence Resonance Energy Transfer (FRET). The 665/620 (acceptor/donor emission signals) ratio is inversely proportional to the concentration of cAMP.

[4] = Plasma stability, human plasma; format: in vitro ADME
Method: (§1) Studies were carried out in mixed-gender human plasma male Sprague-Dawley rat plasma, and male Beagle dog plasma. All plasma was obtained from Bioreclamation and collected on K2EDTA. Plasma was adjusted to pH 7.4 prior to initiating the experiments. DMSO stocks were first prepared for the test articles. […] The vials were kept in a benchtop Thermomixer® for the duration of the experiment. […] Samples were stored at 4° C. until the end of the experiment. After the final time point was sampled, the plate was mixed and then centrifuged at 3000 rpm for 10 minutes.

[5] = Plasma stability, rat plasma; format: in vitro ADME, Sprague-Dawley rat
Method: as §1

[6] = Plasma stability, dog plasma; format: in vitro ADME, Beagle dog
Method: as §1

CCCCCC(CCC1C(OC(=O)OC)CC2Cc3c(cccc3OCC(=O)O)CC21)OC(=O)OC (centres unmarked) [Prodrug LXXI, treprostinil dicarbonate]
Hydrolysis to treprostinil, % Area, t = 1 week ([1]; pH 6, 40 C.): 0.00 % Area | Hydrolysis to treprostinil, % Area, t = 2 weeks ([1]; pH 6, 40 C.): 0.00 % Area | Hydrolysis to treprostinil, % Area, t = 3 weeks ([1]; pH 6, 40 C.): 0.00 % Area | Hydrolysis to treprostinil, % Area, t = 1 week ([1]; pH 7, 40 C.): 0.00 % Area | Hydrolysis to treprostinil, % Area, t = 2 weeks ([1]; pH 7, 40 C.): 0.00 % Area | Hydrolysis to treprostinil, % Area, t = 3 weeks ([1]; pH 7, 40 C.): 0.00 % Area | Hydrolysis to treprostinil, % Area, t = 1 week ([1]; pH 8, 40 C.): 0.00 % Area | Hydrolysis to treprostinil, % Area, t = 2 weeks ([1]; pH 8, 40 C.): 0.00 % Area | Hydrolysis to treprostinil, % Area, t = 3 weeks ([1]; pH 8, 40 C.): 0.38 % Area | AUC [2]: 33.51 µmol·min/L

CCCCCC(CCC1C(O)CC2Cc3c(cccc3OCC(=O)O)CC21)OP(=O)(O)O (centres unmarked) [Prodrug VI]
EP1 Relative to Tre [3]: 5x | EP1 Relative to Tre ([3]; listed as Prodrug VI repeat): 42x

CCCCCC(CCC1C(OC(=O)CC)CC2Cc3c(cccc3OCC(=O)O)CC21)OC(=O)CC (centres unmarked) [Prodrug LXX, treprostinil dipropionate]
Half-life ([4]; 1 μM, 37° C.): >2 h | Percent Remaining 0 min ([4]; 1 μM, 37° C., 0 min): 100% | Percent Remaining 15 min ([4]; 1 μM, 37° C., 15 min): 92.4% | Percent Remaining 30 min ([4]; 1 μM, 37° C., 30 min): 102% | Percent Remaining 60 min ([4]; 1 μM, 37° C., 60 min): 93.3% | Percent Remaining 120 min ([4]; 1 μM, 37° C., 120 min): 103% | Formation of Treprostinil, Concentration 0 min ([4]; prodrug dosed 1 μM, 0 min): 0 µM | Formation of Treprostinil, Concentration 15 min ([4]; prodrug dosed 1 μM, 15 min): 0 µM | Formation of Treprostinil, Concentration 30 min ([4]; prodrug dosed 1 μM, 30 min): 0 µM | Formation of Treprostinil, Concentration 60 min ([4]; prodrug dosed 1 μM, 60 min): 0 µM | Formation of Treprostinil, Concentration 120 min ([4]; prodrug dosed 1 μM, 120 min): 0 µM | Half-life ([5]; 1 μM, 37° C.): 1.7 h | Percent Remaining 0 min ([5]; 1 μM, 37° C., 0 min): 100% | Percent Remaining 15 min ([5]; 1 μM, 37° C., 15 min): 98.3% | Percent Remaining 30 min ([5]; 1 μM, 37° C., 30 min): 80.3% | Percent Remaining 60 min ([5]; 1 μM, 37° C., 60 min): 69.3% | Percent Remaining 120 min ([5]; 1 μM, 37° C., 120 min): 45.0% | Formation of Treprostinil, Concentration 0 min ([5]; prodrug dosed 1 μM, 0 min): 0 µM | Formation of Treprostinil, Concentration 15 min ([5]; prodrug dosed 1 μM, 15 min): 0.00392 µM | Formation of Treprostinil, Concentration 30 min ([5]; prodrug dosed 1 μM, 30 min): 0.0101 µM | Formation of Treprostinil, Concentration 60 min ([5]; prodrug dosed 1 μM, 60 min): 0.0331 µM | Formation of Treprostinil, Concentration 120 min ([5]; prodrug dosed 1 μM, 120 min): 0.0768 µM | Half-life ([6]; 1 μM, 37° C.): >2 h | Percent Remaining 0 min ([6]; 1 μM, 37° C., 0 min): 100% | Percent Remaining 15 min ([6]; 1 μM, 37° C., 15 min): 103% | Percent Remaining 30 min ([6]; 1 μM, 37° C., 30 min): 116% | Percent Remaining 60 min ([6]; 1 μM, 37° C., 60 min): 97.4% | Percent Remaining 120 min ([6]; 1 μM, 37° C., 120 min): 91.4% | Formation of Treprostinil, Concentration 0 min ([6]; prodrug dosed 1 μM, 0 min): 0 µM | Formation of Treprostinil, Concentration 15 min ([6]; prodrug dosed 1 μM, 15 min): 0 µM | Formation of Treprostinil, Concentration 30 min ([6]; prodrug dosed 1 μM, 30 min): 0 µM | Formation of Treprostinil, Concentration 60 min ([6]; prodrug dosed 1 μM, 60 min): 0 µM | Formation of Treprostinil, Concentration 120 min ([6]; prodrug dosed 1 μM, 120 min): 0 µM | EC50 Fold Different from Treprostinil, EP1 Receptor ([3]; Table 18, * partial agonists or odd dose-response curves): NC | Hydrolysis to treprostinil, % Area, t = 1 week ([1]; pH 6, 40 C.): 0.00 % Area | Hydrolysis to treprostinil, % Area, t = 2 weeks ([1]; pH 6, 40 C.): 0.00 % Area | Hydrolysis to treprostinil, % Area, t = 3 weeks ([1]; pH 6, 40 C.): 0.00 % Area | Hydrolysis to treprostinil, % Area, t = 1 week ([1]; pH 7, 40 C.): 0.00 % Area | Hydrolysis to treprostinil, % Area, t = 2 weeks ([1]; pH 7, 40 C.): 0.00 % Area | Hydrolysis to treprostinil, % Area, t = 3 weeks ([1]; pH 7, 40 C.): 0.00 % Area | Hydrolysis to treprostinil, % Area, t = 1 week ([1]; pH 8, 40 C.): 0.00 % Area | Hydrolysis to treprostinil, % Area, t = 2 weeks ([1]; pH 8, 40 C.): 0.00 % Area | Hydrolysis to treprostinil, % Area, t = 3 weeks ([1]; pH 8, 40 C.): 0.00 % Area | AUC [2]: 38.82 µmol·min/L
